Measured values reported in patent US20250296914A1, “ANTIVIRAL COMPOUNDS AND COMPOSITIONS THEREFROM” (CONSEJO SUPERIOR DE INVESTIGACIONES CIENTÍFICAS, priority 2022, published 2025).
Where two headings read alike, the source gives them in different places.

Test system: SARS-CoV-2 stock strain NL/2020
Test: Protective effect against virus-induced cytopathic effect (crystal violet staining of Vero-E6 monolayer)
Type: cell-based
Settings: Vero-E6, SARS-CoV-2 MOI 0.001, 72 h; for minimal effective concentration / PC MIN (lowest protective concentration): 50 to 0.78 μM tested; for minimal effective concentration: read-out: PC MIN (lowest protective concentration); for EC50: lowest fully protecting concentration averaged with next lower dilution, read-out: ESTIMATED EC50
[1] = Severe acute respiratory syndrome coronavirus 2, Vero C1008, 72 h

Row | Compound | minimal effective concentration [1] [µM] | EC50 [1] [nM] | PC MIN (lowest protective concentration) [µM] | EC50 [nM]
1 | COC(=O)c1cc(-c2ccc(N3CCN(C(C)C)CC3)nc2)ccc1NC(C#N)[C@H](Cc1c[nH]c2ccccc12)NC(=O)OC(C)(C)C (stereo partly drawn) [(Iae), methyl 2-(((2S)-2-((tert-butoxycarbonyl)amino)-1-cyano-3-(1H-indol-3-yl)propyl)amino)-5-(6-(4-isopropylpiperazin-1-yl)pyridin-3-yl)benzoate] | 3.12 | 2340 | – | –
2 | COC(=O)c1cc(-c2ccc(C3CC3)cc2)ccc1NC(C#N)[C@H](Cc1c[nH]c2ccccc12)NC(=O)OC(C)(C)C (stereo partly drawn) [(Im2), methyl 4-(((2S)-2-((tert-butoxycarbonyl)amino)-1-cyano-3-(1H-indol-3-yl)propyl)amino)-4′-cyclopropyl-[1,1′-biphenyl]-3-carboxylate] | – | – | 1.56 | 1170
3 | CCN(CC)c1ccc(-c2ccc(NC(C#N)[C@H](Cc3c[nH]c4ccccc34)NC(=O)OC(C)(C)C)c(C(=O)OC)c2)cc1 (stereo partly drawn) [(Ix), methyl 4-(((2S)-2-((tert-butoxycarbonyl)amino)-1-cyano-3-(1H-indol-3-yl)propyl)amino)-4′-(diethylamino)-[1,1′-biphenyl]-3-carboxylate] | 3.12 | 2340 | – | –
4 | COC(=O)c1cc(-c2ccc(N3CCN(C)CC3)cc2)ccc1NC(C#N)[C@H](Cc1c[nH]c2ccccc12)NC(=O)OC(C)(C)C (stereo partly drawn) [(In), methyl 4-(((2S)-2-((tert-butoxycarbonyl)amino)-1-cyano-3-(1H-indol-3-yl)propyl)amino)-4′-(4-methylpiperazin-1-yl)-[1,1′-biphenyl]-3-carboxylate] | 1.56 | 1170 | – | –
5 | CC(C)(C)OC(=O)N[C@@H](Cc1c[nH]c2ccccc12)C(C#N)Nc1ccccc1C(=O)OC(C)(C)C (stereo partly drawn) [(Iv), tert-Butyl 2-(((2S)-2-((tert-butoxycarbonyl)amino)-1-cyano-3-(1H-indol-3-yl)propyl)amino)-benzoate] | 3.12 | 2340 | – | –
6 | COC(=O)c1cc(-c2cccc(C(C)(C)C)c2)ccc1NC(C#N)[C@H](Cc1c[nH]c2ccccc12)NC(=O)OC(C)(C)C (stereo partly drawn) [(Iz), methyl 4-(((2S)-2-((tert-butoxycarbonyl)amino)-1-cyano-3-(1H-indol-3-yl)propyl)amino)-3′-(tert-butyl)-[1,1′-biphenyl]-3-carboxylate] | 3.12 | 2340 | – | –
7 | CCCCc1ccc(-c2ccc(NC(C#N)[C@H](Cc3c[nH]c4ccccc34)NC(=O)OC(C)(C)C)c(C(=O)OC)c2)cc1 (stereo partly drawn) [(Iw), methyl 4-(((2S)-2-((tert-butoxycarbonyl)amino)-1-cyano-3-(1H-indol-3-yl)propyl)amino)-4′-butyl-[1,1′-biphenyl]-3-carboxylate] | – | 2340 | 3.12 | –
8 | COC(=O)c1cc(-c2cccc(Cc3ccccc3)c2)ccc1NC(C#N)[C@H](Cc1c[nH]c2ccccc12)NC(=O)OC(C)(C)C (stereo partly drawn) [(Iah), methyl 3′-benzyl-4-(((2S)-2-((tert-butoxycarbonyl)amino)-1-cyano-3-(1H-indol-3-yl)propyl)-amino)-[1,1′-biphenyl]-3-carboxylate] | 6.25 | 4680 | – | –
9 | CCc1ccc(-c2ccc(NC(C#N)[C@H](Cc3c[nH]c4ccccc34)NC(=O)OC(C)(C)C)c(C(=O)OC)c2)cc1 (stereo partly drawn) [(Il), methyl 4-(((2S)-2-((tert-butoxycarbonyl)amino)-1-cyano-3-(1H-indol-3-yl)propyl)amino)-4′-ethyl-[1,1′-biphenyl]-3-carboxylate] | 1.56 | 1170 | – | –
10 | COC(=O)c1cc(-c2ccc(C(C)(C)C)cc2)ccc1NC(C#N)[C@H](Cc1c[nH]c2ccccc12)NC(=O)OC(C)(C)C (stereo partly drawn) [(Ij), methyl 4-(((2S)-2-((tert-butoxycarbonyl)amino)-1-cyano-3-(1H-indol-3-yl)propyl)amino)-4′-(tert-butyl)-[1,1′-biphenyl]-3-carboxylate] | 1.56 | 1170 | – | –
11 | CCCOc1ccc(-c2ccc(NC(C#N)[C@H](Cc3c[nH]c4ccccc34)NC(=O)OC(C)(C)C)c(C(=O)OC)c2)cc1 (stereo partly drawn) [(Iy), methyl 4-(((2S)-2-((tert-butoxycarbonyl)amino)-1-cyano-3-(1H-indol-3-yl)propyl)amino)-4′-propoxy-[1,1′-biphenyl]-3-carboxylate] | 3.12 | 2340 | – | –
12 | COC(=O)c1cc(-c2ccc(C)nc2)ccc1NC(C#N)[C@H](Cc1c[nH]c2ccccc12)NC(=O)OC(C)(C)C (stereo partly drawn) [(Ir), methyl 2-(((2S)-2-((tert-butoxycarbonyl)amino)-1-cyano-3-(1H-indol-3-yl)propyl)amino)-5-(6-methylpyridin-3-yl)benzoate] | 1.56 | 1170 | – | –
13 | COC(=O)c1cc(-c2ccc(C3CC3)cc2)ccc1NC(C#N)[C@H](Cc1c[nH]c2ccccc12)NC(=O)OC(C)(C)C (stereo partly drawn) [(Im3), methyl 4-(((2S)-2-((tert-butoxycarbonyl)amino)-1-cyano-3-(1H-indol-3-yl)propyl)amino)-4′-(cyclopropyl)-[1,1′-biphenyl]-3-carboxylate] | – | – | 3.12 | 2340
14 | CC(C)(C)OC(=O)N[C@@H](Cc1c[nH]c2ccccc12)C(C#N)Nc1ccccc1C(=O)NCc1ccccc1 (stereo partly drawn) [(Iai), 2-(((2S)-2-(tert-butoxycarbonylamino)-1-cyano-3-(1H-indol-3-yl)propyl)amino)-N-benzyl-benzamide] | 6.25 | 4690 | – | –
15 | COC(=O)c1cc(-c2ccc(C3CC3)cc2)ccc1NC(C#N)[C@H](Cc1c[nH]c2ccccc12)NC(=O)OC(C)(C)C (stereo partly drawn) [(Im4), methyl 4-(((2S)-2-((tert-butoxycarbonyl)amino)-1-cyano-3-(1H-indol-3-yl)propyl)amino)-4′-cyclopropyl-[1,1′-biphenyl]-3-carboxylate] | – | – | 6.25 | 4690
16 | COC(=O)c1cc(-c2cccc(OC(F)(F)F)c2)ccc1NC(C#N)[C@H](Cc1c[nH]c2ccccc12)NC(=O)OC(C)(C)C (stereo partly drawn) [(Iad), methyl 4-(((2S)-2-((tert-butoxycarbonyl)amino)-1-cyano-3-(1H-indol-3-yl)propyl)amino)-3′-(trifluoromethoxy)-[1,1′-biphenyl]-3-carboxylate] | 3.12 | 2340 | – | –
17 | CCOc1ncc(-c2ccc(NC(C#N)[C@H](Cc3c[nH]c4ccccc34)NC(=O)OC(C)(C)C)c(C(=O)OC)c2)cn1 (stereo partly drawn) [(Iaf), methyl 2-(((2S)-2-((tert-butoxycarbonyl)amino)-1-cyano-3-(1H-indol-3-yl)propyl)amino)-5-(2-ethoxypyrimidin-5-yl)benzoate] | 3.12 | 2340 | – | –
18 | CC(=O)c1ccccc1NC(C#N)[C@H](Cc1c[nH]c2ccccc12)NC(=O)OC(C)(C)C (stereo partly drawn) [(Ial), (3S)-3-(tert-butoxycarbonylamino)-2-((2-acetylphenyl)amino)-4-(1H-indol-3-yl)butanenitrile] | 12.5 | 9370 | – | –
19 | COC(=O)c1cc(-c2ccc(C3CC3)cc2)ccc1NC(C#N)[C@H](Cc1c[nH]c2ccccc12)NC(=O)OC(C)(C)C (stereo partly drawn) [(Im1), methyl 4-(((2S)-2-((tert-butoxycarbonyl)amino)-1-cyano-3-(1H-indol-3-yl)propyl)amino)-4′-cyclopropyl-[1,1′-biphenyl]-3-carboxylate] | – | – | 1.56 | 1170
20 | COC(=O)c1cc(-c2ccc(OC)nc2)ccc1NC(C#N)[C@H](Cc1c[nH]c2ccccc12)NC(=O)OC(C)(C)C (stereo partly drawn) [(It), methyl 2-(((2S)-2-((tert-butoxycarbonyl)amino)-1-cyano-3-(1H-indol-3-yl)propyl)amino)-5-(6-methoxypyridin-3-yl)benzoate] | 1.56 | 1170 | – | –
21 | CCCCc1ccc(-c2ccc(NC(C#N)[C@H](Cc3c[nH]c4ccccc34)NC(=O)OC(C)(C)C)c(C(=O)OC)c2)cc1 (stereo partly drawn) [(Iag), methyl 4-(((2S)-2-((tert-butoxycarbonyl)amino)-1-cyano-3-(1H-indol-3-yl)propyl)amino)-4′-butyl-[1,1′-biphenyl]-3-carboxylate] | – | – | 6.25 | 4680
22 | COC(=O)c1ccccc1NC(C#N)[C@H](Cc1c[nH]c2ccccc12)NC(=O)OC(C)(C)C (stereo partly drawn) [(Iu), methyl 2-(((2S)-2-((tert-butoxycarbonyl)amino)-1-cyano-3-(1H-indol-3-yl)propyl)amino)benzoate] | 3.12 | 2340 | – | –
23 | CCc1cccc(-c2ccc(NC(C#N)[C@H](Cc3c[nH]c4ccccc34)NC(=O)OC(C)(C)C)c(C(=O)OC)c2)c1 (stereo partly drawn) [(Iaa), methyl 4-(((2S)-2-((tert-butoxycarbonyl)amino)-1-cyano-3-(1H-indol-3-yl)propyl)amino)-3′-ethyl-[1,1′-biphenyl]-3-carboxylate] | 3.12 | 2340 | – | –
24 | COC(=O)c1ccc(NC(C#N)[C@H](Cc2c[nH]c3ccccc23)NC(=O)OC(C)(C)C)cc1 (stereo partly drawn) [(Iam), methyl 4-(((2S)-2-((tert-butoxycarbonyl)amino)-1-cyano-3-(1H-indol-3-yl)propyl)amino)-benzoate] | 25 | 18800 | – | –
25 | COC(=O)c1c(Br)cccc1NC(C#N)[C@H](Cc1c[nH]c2ccccc12)NC(=O)OC(C)(C)C (stereo partly drawn) [(Ik), methyl 2-bromo-6-(((2S)-2-((tert-butoxycarbonyl)amino)-1-cyano-3-(1H-indol-3-yl)propyl)-amino)benzoate] | 1.56 | 1170 | – | –
26 | COC(=O)c1cc(-c2cccc(N3CCCC3)c2)ccc1NC(C#N)[C@H](Cc1c[nH]c2ccccc12)NC(=O)OC(C)(C)C (stereo partly drawn) [(Iab), methyl 4-(((2S)-2-((tert-butoxycarbonyl)amino)-1-cyano-3-(1H-indol-3-yl)propyl)amino)-3′-(pyrrolidin-1-yl)-[1,1′-biphenyl]-3-carboxylate] | 3.12 | 2340 | – | –
